Literature values as cited in article PMC3147153 (Clinical cancer research : an official journal of the …, 2009).

Test system: CYP3A4
Conditions: in vitro; ref studies done by Ariad Pharmaceuticals; cited from earlier work

Question: Which “metabolism by CYP3A4” value does the source give for `CO[C@H]1C[C@@H]2CC[C@@H](C)[C@@](O)(O2)C(=O)C(=O)N2CCCC[C@H]2C(=O)O[C@H]([C@H](C)C[C@@H]2CC[C@@H](O)[C@H](OC)C2)CC(=O)[C@H](C)/C=C(\C)[C@@H](O)[C@@H](OC)C(=O)[C@H](C)C[C@H](C)/C=C/C=C/C=C/1C` [sirolimus, reference compound] here?
Answer: primarily metabolized by CYP3A4
